Source: paper PMC7317212 (Chemmedchem, 2020)
Where two headings read alike, the source gives them in different places.

Key:
mGAT2 = molecular target: T1, mGAT2 (Mus musculus, UniProt P31651); test: [^3H]GABA uptake assay, HEK293 cells expressing mGAT2; type: cell-based; settings: HEK293; in presence of 100 μM compound
T1 construct: expressed in transfected cells; host or cells: HEK293
T1 sequence (P31651 1-614): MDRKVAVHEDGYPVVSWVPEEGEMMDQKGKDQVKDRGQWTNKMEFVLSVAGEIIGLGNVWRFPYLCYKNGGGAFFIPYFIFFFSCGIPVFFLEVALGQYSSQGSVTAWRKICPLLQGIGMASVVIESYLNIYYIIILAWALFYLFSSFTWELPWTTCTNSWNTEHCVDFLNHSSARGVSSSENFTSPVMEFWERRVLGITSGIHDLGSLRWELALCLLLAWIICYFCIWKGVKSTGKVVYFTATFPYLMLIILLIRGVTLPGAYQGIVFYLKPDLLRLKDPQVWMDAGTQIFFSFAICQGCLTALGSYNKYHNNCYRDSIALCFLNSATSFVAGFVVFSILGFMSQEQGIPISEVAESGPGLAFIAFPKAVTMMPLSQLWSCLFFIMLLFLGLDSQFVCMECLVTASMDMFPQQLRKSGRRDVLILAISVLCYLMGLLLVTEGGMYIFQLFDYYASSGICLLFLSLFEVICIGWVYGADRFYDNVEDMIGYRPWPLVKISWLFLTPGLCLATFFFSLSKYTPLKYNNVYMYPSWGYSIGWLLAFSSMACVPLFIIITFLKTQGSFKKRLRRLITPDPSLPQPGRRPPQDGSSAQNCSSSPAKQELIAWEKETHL
Summary of the method: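 HEK293 cells expressing mouse GATs preincubated 25 min at 37 °C with compound in Krebs buffer pH 7.2, then [3H]GABA added: 8 nM plus 32 nM unlabeled for 4 min (mGAT1/3/4), 20 nM plus 20 nM for 10 min (mGAT2). Filtration, scintillation counting; nonspecific uptake with 10 mM (mGAT1/3/4) or 100 mM GABA (mGAT2); pIC50.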

mGAT4 = molecular target: T2, mGAT4 (Mus musculus, UniProt P31650); test: GABA uptake inhibition at mGAT4 with varied preincubation time; type: cell-based
T2 construct: expressed in transfected cells; host or cells: HEK293
T2 sequence (P31650 1-627): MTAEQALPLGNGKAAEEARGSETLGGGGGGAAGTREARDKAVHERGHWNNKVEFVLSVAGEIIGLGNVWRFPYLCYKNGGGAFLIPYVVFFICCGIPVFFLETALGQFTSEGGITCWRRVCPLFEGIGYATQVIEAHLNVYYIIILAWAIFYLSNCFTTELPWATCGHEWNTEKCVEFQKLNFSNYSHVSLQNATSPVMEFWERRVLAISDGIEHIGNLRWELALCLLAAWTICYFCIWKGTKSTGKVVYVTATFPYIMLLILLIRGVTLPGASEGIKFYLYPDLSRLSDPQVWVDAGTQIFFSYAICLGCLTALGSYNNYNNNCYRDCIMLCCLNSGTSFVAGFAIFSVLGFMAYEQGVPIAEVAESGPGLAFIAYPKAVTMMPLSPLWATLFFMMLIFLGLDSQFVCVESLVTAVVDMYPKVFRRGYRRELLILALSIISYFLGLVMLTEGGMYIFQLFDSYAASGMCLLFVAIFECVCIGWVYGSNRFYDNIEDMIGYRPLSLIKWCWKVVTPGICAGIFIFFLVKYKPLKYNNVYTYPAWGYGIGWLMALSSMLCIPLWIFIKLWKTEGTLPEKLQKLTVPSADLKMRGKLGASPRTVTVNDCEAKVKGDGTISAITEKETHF

COc1ccc(C(OCCN2CCCC(C(=O)O)C2)(c2ccc(C=O)cc2)c2ccc(OC)cc2)cc1 (racemic) [5 a, rac‐ 1‐{2‐[(4‐Formylphenyl)bis(4‐methoxyphenyl)methoxy]ethyl}piper‐idine‐3‐carboxylic acid]
remaining activity at 100 µM (mGAT2): 66.3% | IC50 (mGAT4; Experiment No. 1, preincubation time 10 min, read-out: pIC50 mGAT4 (converted)): 1350 nM | IC50 (mGAT4; Experiment No. 1, preincubation time 25 min, read-out: pIC50 mGAT4 (converted)): 1050 nM | IC50 (mGAT4; Experiment No. 1, preincubation time 60 min, read-out: pIC50 mGAT4 (converted)): 912 nM | IC50 (mGAT4; Experiment No. 2, preincubation time 10 min, read-out: pIC50 mGAT4 (converted)): 2690 nM | IC50 (mGAT4; Experiment No. 2, preincubation time 25 min, read-out: pIC50 mGAT4 (converted)): 1860 nM | IC50 (mGAT4; Experiment No. 2, preincubation time 60 min, read-out: pIC50 mGAT4 (converted)): 1230 nM | IC50 (mGAT4; Experiment No. 3, preincubation time 10 min, read-out: pIC50 mGAT4 (converted)): 2690 nM | IC50 (mGAT4; Experiment No. 3, preincubation time 25 min, read-out: pIC50 mGAT4 (converted)): 1480 nM | IC50 (mGAT4; Experiment No. 3, preincubation time 60 min, read-out: pIC50 mGAT4 (converted)): 1660 nM | IC50 (mGAT4; Experiment No. 4, preincubation time 25 min, read-out: pIC50 mGAT4 (converted)): 2000 nM | IC50 (mGAT4; Experiment No. 4, preincubation time 60 min, read-out: pIC50 mGAT4 (converted)): 617 nM | IC50 (mGAT4; Experiment No. 5, preincubation time 25 min, read-out: pIC50 mGAT4 (converted)): 1580 nM | IC50 (mGAT4; Experiment No. 5, preincubation time 60 min, read-out: pIC50 mGAT4 (converted)): 1260 nM | IC50 (mGAT4; Experiment No. 6, preincubation time 25 min, read-out: pIC50 mGAT4 (converted)): 1380 nM | IC50 (mGAT4; Experiment No. 6, preincubation time 60 min, read-out: pIC50 mGAT4 (converted)): 1020 nM | Normalized pIC50 mGAT4 (mGAT4; preincubation time 10 min, experiments 1-3, relative to 25 min = 100.00): 97.98 | IC50 (mGAT4; preincubation time 10 min, experiments 1-3, read-out: Average pIC50 mGAT4 (converted)): 2140 nM | Normalized pIC50 mGAT4 (mGAT4; preincubation time 25 min, experiments 1-3 (reference)): 100.00 | IC50 (mGAT4; preincubation time 25 min, experiments 1-3, read-out: Average pIC50 mGAT4 (converted)): 1410 nM | Normalized pIC50 mGAT4 (mGAT4; preincubation time 25 min, experiments 4-6 (reference)): 100.00 | IC50 (mGAT4; preincubation time 25 min, experiments 4-6, read-out: Average pIC50 mGAT4 (converted)): 1620 nM | Normalized pIC50 mGAT4 (mGAT4; preincubation time 60 min, experiments 1-3, relative to 25 min = 100.00): 101.08 | IC50 (mGAT4; preincubation time 60 min, experiments 1-3, read-out: Average pIC50 mGAT4 (converted)): 1230 nM | Normalized pIC50 mGAT4 (mGAT4; preincubation time 60 min, experiments 4-6, relative to 25 min = 100.00): 104.26 | IC50 (mGAT4; preincubation time 60 min, experiments 4-6, read-out: Average pIC50 mGAT4 (converted)): 933 nM
